Reference: patent publication US9255090B2, “Heterocyclyl derivatives and their use as prostaglandin D2 receptor modulators” (Actelion Pharmaceuticals Ltd., priority 2012, dated 2016)
Counter-ions that a name gives are not always drawn.

Molecular target: hCRTH2 receptor (Homo sapiens (Human), UniProt Q9Y5Y4)
Assay: hCRTH2 receptor membranes radioligand (3H-PGD2) displacement assay
Assay type: binding
Settings: 3H-PGD2 radioligand displacement, HEK293-hCRTH2 membranes
Procedure: Biological Assays: Preparation of hCRTH2 Receptor Membranes and Radioligand Displacement Assay:
First, recombinant HEK293-hCRTH2 cells were detached from culture plates into 5 ml buffer A/plate (Buffer A: 5 mM Tris, 1 mM MgCl2-6H2O pH=7.4) using a rubber policeman. Cells were then transferred into centrifugation tubes and centrifuged for 5 min at 400 g. The cell pellet was resuspended in the same buffer and tubes were frozen at −80° C. Cells were thawed and membrane fragments were generated by homogenization using a polytron homogenizer (30 seconds). The membrane fragments were then centrifuged at 3000 g for 20 minutes and resuspended in buffer C (Buffer C: 75 mM Tris, 25 mM MgCl2, 250 mM Saccharose pH 7.4). Aliquots of membrane fragments were stored at −20° C.
Binding assay was performed in a final assay volume of 250 μl. First, 25 μl of test compound, previously diluted in Binding-Buffer (Binding-Buffer: 50 mM Tris-Base, 100 mM NaCl, 1 mM EDTA, 0.1% BSA (protease free), 0.01% NaN3, 10 mM MnCl2, pH 7.0) was placed into each well. After addition of 75 μl Binding-Buffer, 50 μl of the radioligand ^3H-PGD2 (at 2.5 nM (220.000 dpm/well) from ANAWA ART0662) was added to each well. Binding assay was started by addition of 100 μl CRTH2 membrane fragments, reaching a final concentration of 20 μg/well. For non-specific binding, PGD2 was added to the reaction mixture to […] final concentration. This assay mix was incubated for 90 minutes at room temperature and then filtered through a GF/C filter 96-well plate which was pre-soaked for 3 hours in 0.5% polyethyleneimine (PEI). The filter-wells were washed three times with ice cold Binding-Buffer. Then, 40 μl of Microscint-40 (Packard) was added to each well and the retained radioactivity quantified in a Topcount (Packard).

Chain of hCRTH2 receptor (Q9Y5Y4 whole entry): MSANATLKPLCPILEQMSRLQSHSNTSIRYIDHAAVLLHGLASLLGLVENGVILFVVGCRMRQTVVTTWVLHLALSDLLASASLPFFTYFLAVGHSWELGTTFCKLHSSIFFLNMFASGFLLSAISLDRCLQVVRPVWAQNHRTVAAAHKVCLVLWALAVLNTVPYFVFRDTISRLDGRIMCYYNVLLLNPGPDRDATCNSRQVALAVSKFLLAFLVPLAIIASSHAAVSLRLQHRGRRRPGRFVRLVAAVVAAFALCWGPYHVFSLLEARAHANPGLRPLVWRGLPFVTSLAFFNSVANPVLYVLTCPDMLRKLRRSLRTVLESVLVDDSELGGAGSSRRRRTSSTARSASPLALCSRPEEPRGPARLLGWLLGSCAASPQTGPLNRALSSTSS

Structure (SMILES)	IC50 [nM]
COc1ccc(CC(=O)O)cc1-c1ccc(F)c2c1CN(C(=O)[C@@H]1C[C@H]1c1ccc(Cl)cc1)CC2 (racemic) [Example 2, (±)-(3-{2-[trans-2-(4-Chloro-phenyl)-cyclopropanecarbonyl]-5-fluoro-1,2,3,4-tetrahydro-isoquinolin-8-yl}-4-methoxy-phenyl)-acetic acid]	1.93
COc1ccc(CC(=O)O)cc1-c1ccc(F)c2c1CN(C(=O)[C@@H]1C[C@H]1c1ccccc1Cl)CC2 (racemic) [Example 3, (±)-(3-{2-[trans-2-(2-Chloro-phenyl)-cyclopropanecarbonyl]-5-fluoro-1,2,3,4-tetrahydro-isoquinolin-8-yl}-4-methoxy-phenyl)-acetic acid]	2.11
COc1ccc(CC(=O)O)cc1-c1ccc(F)c2c1CN(C(=O)[C@@H]1C[C@H]1c1cccc(Cl)c1)CC2 (racemic) [Example 4, (±)-(3-{2-[trans-2-(3-Chloro-phenyl)-cyclopropanecarbonyl]-5-fluoro-1,2,3,4-tetrahydro-isoquinolin-8-yl}-4-methoxy-phenyl)-acetic acid]	5.39
COc1ccc(CC(=O)O)cc1-c1ccc(F)c2c1CN(C(=O)[C@@H]1C[C@H]1c1ccccc1C)CC2 (racemic) [Example 6, (±)-{3-[5-Fluoro-2-(trans-2-o-tolyl-cyclopropanecarbonyl)-1,2,3,4-tetrahydro-isoquinolin-8-yl]-4-methoxy-phenyl}-acetic acid]	4.22
COc1ccc(CC(=O)O)cc1-c1ccc(F)c2c1CN(C(=O)CC(c1ccccc1)c1ccc(Cl)cc1)CC2 (racemic) [Example 97, (±)-(3-{2-[3-(4-Chloro-phenyl)-3-phenyl-propionyl]-5-fluoro-1,2,3,4-tetrahydro-isoquinolin-8-yl}-4-methoxy-phenyl)-acetic acid]	48.1
COc1ccc(CC(=O)O)cc1-c1ccc(F)c2c1CN(C(=O)[C@@H]1C[C@H]1c1ccc(Cl)cc1Cl)CC2 (racemic) [Example 98, (±)-(3-{2-[trans-2-(2,4-Dichloro-phenyl)-cyclopropanecarbonyl]-5-fluoro-1,2,3,4-tetrahydro-isoquinolin-8-yl}-4-methoxy-phenyl)-acetic acid]	10.1
COc1ccc(CC(=O)O)cc1-c1ccc(F)c2c1CN(C(=O)C(C)Cc1ccccc1)CC2 (racemic) [Example 109, (±)-{3-[5-Fluoro-2-(2-methyl-3-phenyl-propionyl)-1,2,3,4-tetrahydro-isoquinolin-8-yl]-4-methoxy-phenyl}-acetic acid]	28.9
COc1ccc(CC(=O)O)cc1-c1ccc(F)c2c1CN(C(=O)C1CCc3ccccc31)CC2 (racemic) [Example 112, (±)-{3-[5-Fluoro-2-(indane-1-carbonyl)-1,2,3,4-tetrahydro-isoquinolin-8-yl]-4-methoxy-phenyl}-acetic acid]	202
COc1ccc(CC(=O)O)cc1-c1ccc(F)c2c1CN(C(=O)C1COc3ccccc3C1)CC2 (racemic) [Example 113, (±)-{3-[2-(Chroman-3-carbonyl)-5-fluoro-1,2,3,4-tetrahydro-isoquinolin-8-yl]-4-methoxy-phenyl}-acetic acid]	18.6
COc1ccc(CC(=O)O)cc1-c1ccc(F)c2c1CN(C(=O)C1CCc3ccccc3O1)CC2 (racemic) [Example 115, (±)-{3-[2-(Chroman-2-carbonyl)-5-fluoro-1,2,3,4-tetrahydro-isoquinolin-8-yl]-4-methoxy-phenyl}-acetic acid]	173
COc1ccc(C(C)C(=O)O)cc1-c1ccc(F)c2c1CN(C(=O)[C@@H]1C[C@H]1c1ccccc1)CC2 (mixture of isomers) [Example 120, (±)-2-{3-[5-Fluoro-2-((1R,2R)-2-phenyl-cyclopropanecarbonyl)-1,2,3,4-tetrahydro-isoquinolin-8-yl]-4-methoxy-phenyl}-propionic acid]	8.56
COc1ccc(CC(=O)O)cc1-c1ccc(F)c2c1CN(C(=O)C1CC(=O)c3ccccc31)CC2 (racemic) [Example 122, (±)-{3-[5-Fluoro-2-(3-oxo-indane-1-carbonyl)-1,2,3,4-tetrahydro-isoquinolin-8-yl]-4-methoxy-phenyl}-acetic acid]	862
COc1ccc(C(C)C(=O)O)cc1-c1ccc(F)c2c1CN(C(=O)OCc1ccccc1F)CC2 (racemic) [Example 140, (±)-8-[5-(1-Carboxy-ethyl)-2-methoxy-phenyl]-5-fluoro-3,4-dihydro-1H-isoquinoline-2-carboxylic acid 2-fluoro-benzyl ester]	62.6
COc1ccc(C(C)C(=O)O)cc1-c1ccc(F)c2c1CN(C(=O)OCc1ccccc1)CC2 (racemic) [Example 171, (±)-8-[5-(1-Carboxy-ethyl)-2-methoxy-phenyl]-5-fluoro-3,4-dihydro-1H-isoquinoline-2-carboxylic acid benzyl ester]	21.2
CCOc1ccc(CC(=O)O)cc1-c1ccc(F)c2c1CN(C(=O)CC1CCc3ccccc31)CC2 (racemic) [Example 219]	9.1
CCOc1cc(CC(=O)O)ccc1-c1ccc(F)c2c1CN(C(=O)CC1COCc3ccccc31)CC2 (racemic) [Example 232]	0.6
CCOc1cc(CC(=O)O)ccc1-c1ccc(F)c2c1CN(C(=O)CC1CCc3ccccc31)CC2 (racemic) [Example 233]	1.1
COc1ccc(CC(=O)O)cc1-c1ccc(F)c2c1CN(C(=O)CC1(C)CCCc3ccccc31)CC2 (racemic) [Example 239]	28.4
COc1ccc(CC(=O)O)cc1-c1ccc(F)c2c1CN(C(=O)C1CCc3cccc(OC)c3C1)CC2 (racemic) [Example 241]	8.3
COc1ccc(CC(=O)O)cc1-c1ccc(F)c2c1CN(C(=O)CC1COc3ccccc3C1)CC2 (racemic) [Example 242]	2.7

Structure (SMILES)	IC50 [nM]
COc1ccc(CC(=O)O)cc1-c1ccc(F)c2c1CN(C(=O)CC1CCOc3ccc(F)cc31)CC2 (racemic) [Example 244]	158
COc1ccc(CC(=O)O)cc1-c1ccc(F)c2c1CN(C(=O)CC(C)C1CC1)CC2 (racemic) [Example 245]	399
COc1ccc(CC(=O)O)cc1-c1ccc(F)c2c1CN(C(=O)CC1CCOc3c(F)cccc31)CC2 (racemic) [Example 246]	22.3
COc1ccc(CC(=O)O)cc1-c1ccc(F)c2c1CN(C(=O)CC1CCCc3ccncc31)CC2 (racemic) [Example 247, hydrochloride]	484
COc1ccc(CC(=O)O)cc1-c1ccc(F)c2c1CN(C(=O)CC(C)(O)c1ccccc1)CC2 (racemic) [Example 256]	49.8
COc1ccc(CC(=O)O)cc1-c1ccc(F)c2c1CN(C(=O)CC1c3ccccc3CCN1C)CC2 (racemic) [Example 259]	587
COc1ccc(CC(=O)O)cc1-c1ccc(F)c2c1CN(C(=O)CC(c1ccccc1)C(C)C)CC2 (racemic) [Example 264]	253
COc1ccc(CC(=O)O)cc1-c1ccc(F)c2c1CN(C(=O)CC(C)c1cccnc1)CC2 (racemic) [Example 266, (±)-{3-[5-Fluoro-2-(3-pyridin-3-yl-butyryl)-1,2,3,4-tetrahydro-isoquinolin-8-yl]-4-methoxy-phenyl}-acetic acid formiate]	32.7
COc1ccc(CC(=O)O)cc1-c1ccc(F)c2c1CN(C(=O)CC(C)c1ccncc1)CC2 (racemic) [Example 267, (±)-{3-[5-Fluoro-2-(3-pyridin-4-yl-butyryl)-1,2,3,4-tetrahydro-isoquinolin-8-yl]-4-methoxy-phenyl}-acetic acid formiate]	86.1
CCC(CC(=O)N1CCc2c(F)ccc(-c3cc(CC(=O)O)ccc3OC)c2C1)c1ccccc1 (racemic) [Example 268]	63.6
COc1ccc(CC(=O)O)cc1-c1ccc(F)c2c1CN(C(=O)CC1COc3ccccc31)CC2 (racemic) [Example 270]	25.3
COc1ccc(CC(=O)O)cc1-c1ccc(F)c2c1CN(C(=O)C1CCOc3ccccc31)CC2 (racemic) [Example 272]	262
COc1ccc(CC(=O)O)cc1-c1ccc(F)c2c1CN(C(=O)C1OCCc3ccccc31)CC2 (racemic) [Example 273]	683
COc1ccc(CC(=O)O)cc1-c1ccc(F)c2c1CN(C(=O)C1Cc3ccccc3CO1)CC2 (racemic) [Example 274]	58.2
CCOc1ccc(CC(=O)O)cc1-c1ccc(F)c2c1CN(C(=O)CC(C)c1ccccc1F)CC2 (racemic) [Example 280]	3.4
CCOc1ccc(CC(=O)O)cc1-c1ccc(F)c2c1CN(C(=O)CC(C)c1cnccn1)CC2 (racemic) [Example 281]	27.5
CCOc1ccc(CC(=O)O)cc1-c1ccc(F)c2c1CN(C(=O)CC(C)c1ccccc1OC)CC2 (racemic) [Example 282]	2.2
CCOc1ccc(CC(=O)O)cc1-c1ccc(F)c2c1CN(C(=O)CC(C)c1nccs1)CC2 (racemic) [Example 283]	7.2
CCOc1ccc(CC(=O)O)cc1-c1ccc(F)c2c1CN(C(=O)CC1CC(C)(C)Oc3ncccc31)CC2 (racemic) [Example 284]	2.4
